`O=C1NC(=O)C(c2cn3c4c(cccc24)C(O)CC3)=C1c1c[nH]c2ccccc12` (centres undefined) had a melting point of 165 to 168 °C. For `O=C(NNS(=O)(=O)c1ccccc1)c1ccc2ncccc2c1`, the melting point is 211 to 214 °C. In the case of `COc1cc2c(cc1OCc1ccccc1)CCCN(Cc1cc(OC)c(OC)c(OC)c1)C2` it was 44 to 46 °C.

`CCCc1c(CSc2ncccc2OCC(=O)O)ccc(C(C)=O)c1O` displayed a melting point of 157 °C.

Take `CN1C(=O)CC[C@]2(C)c3ccc(CCc4ccc5ccccc5c4)cc3CC[C@@H]12`: the melting point fell in the range of 109 to 110 °C. Under `Fc1cccc(F)c1C1=NCC(=S)Nc2ccc(Cl)cc21` stands 222 to 224 °C; under `O=C(NCCN1CCN(C(c2ccccc2)c2cccnc2)CC1)C1CSC(c2cccnc2)N1` (centres undefined), 130 to 131 °C; under `COc1c(Cl)ncnc1OCCc1ccc(Cl)cc1`, 70 to 71 °C. Under `CON=C1C(C)(C)c2cc3c(cc2C1(C)C)N(SCc1nccc(OC)c1C)CN3` stands 100 °C; under `CC(=O)NC1(Cc2ccccc2)CCN(Cc2ccccc2)CC1`, 134 °C.

Take `O=C1Nc2c(F)cc(F)cc2C1=O`: the melting point lay within 188 to 194 °C. As to `COC(=O)c1oc(C(C)(C)C)cc1NC(=O)Nc1cccc(Cl)c1Cl`, the melting point was in the range of 195 to 197 °C.

With `CC(=O)SCC1(C)C(=O)N2CCCC(C(=O)OC(C)(C)C)N2C1=O` (centres undefined), the melting point is 78 to 79 °C. For `Cc1ccc(NC(=O)OCC(C)C)cc1Nc1ncc(-c2cccnc2)o1`, the melting point was found to be 186 °C. Under `Cc1c(-c2ccccc2)oc2c(CSCCCl)cccc2c1=O` stands 82 to 83 °C; under `COc1cc2c(cc1OC)C(C(S)(C#N)c1ccccc1)=NCC2` (centres undefined), 160 to 161 °C; under `CC12C=CC(=O)C=C1CCC1C2CCC2(C)C(=O)COC12` (centres undefined), 181 to 185 °C. For `CC(=O)OC1N=C(c2ccccc2Cl)c2c(cn(C)c2C)N(C)C1=O` (centres undefined), the melting point is 202 to 204 °C.

`CC(=O)Oc1cc(C(=O)O)cc(C(=O)O)c1` yielded a melting point of 240 °C. Under `N=C(NO)c1ccc2c(c1)COC(N[C@@H]1CCc3ccccc31)=N2` stands 206 °C; under `CSc1[nH]c(C(C)C)nc(=O)c1C#N`, greater than 260 °C; under `c1ccc(CN2CCN(CC3CCc4ccccc4O3)CC2)cc1` (centres undefined), greater than 230 °C. In the case of `CCC(=O)OCC(OC(=O)CC)C1OC(SC)C(OC(=O)CC)C1OC(=O)CC` (centres undefined) it was 62 to 63 °C. `O=c1[nH]c2ccccc2n1C1CCN(CC(O)CSc2ccc(F)cc2)CC1` (centres undefined) showed a melting point of 155 to 157 °C.

On to `CCSc1nn2c(-c3ccccc3)nnc2c2ccccc12`, for which the melting point is 190 to 191 °C.

Molecule `O=C1C(O)=C(c2ccc(Cl)cc2)C(=O)C(O)=C1/C=C/c1ccccc1` registered a melting point of 258 to 259 °C. `CCCCNC(=O)[C@@H](C[C@H](O)[C@H](CC1CCCCC1)NC(=O)OC(C)(C)C)C(C)C` yielded a melting point of 115 to 118 °C. In turn, `NS(=O)(=O)c1ccccc1CN1CCCC1` displayed a melting point of 110 to 112 °C. In the case of `OC(CNC1CC1)c1cccc(Br)c1` (centres undefined) it was 69.5 to 70.4 °C; in that of `CC(=NC(C#N)=C(N)C#N)c1ccccc1O`, 181 to 183 °C; in that of `O=C1CCC2CCCCC2N1` (centres undefined), 123 to 126 °C. The molecule `CNCc1ccc2oc(-c3ccccc3C#N)c(Br)c2c1` showed a melting point of 114 °C. With `COc1ccc2c(=O)cc(-c3ccc(OCC(O)CNC4CC4)cc3)oc2c1` (centres undefined), the melting point lay within 105 to 106 °C.

In turn, `CC(=O)Oc1ccc(CCl)cc1C(OC(C)=O)OC(C)=O` returned a melting point of 93 to 95 °C. `CCc1nc2c(N)nc3cc(Br)ccc3c2n1CC1CCN(C(=O)OC(C)(C)C)CC1` gave a melting point of 131 to 132 °C. `O=C(O)c1cn(C2CC2)c2nc(N3CCC(c4cccnc4)C3)c(F)cc2c1=O` (centres undefined): the melting point was 226 to 228 °C. Molecule `Cc1nn(-c2cc(C(F)(F)F)ccc2Cl)cc1C(=O)O` yielded a melting point of 206 to 208 °C. In the case of `O=C(NCc1ccccc1)c1ccc(Cl)nc1` it was 113 to 114 °C.

Molecule `COC(=O)C(C)(C)OCc1cc2cc(Cl)ccc2n1S(=O)(=O)c1ccc2c(c1)CCN2C(C)=O` came in with a melting point of 128 to 130 °C. Under `Cc1nc2c3c(ccc2n1C)C(=O)CC(c1ccccc1)O3` (centres undefined) stands 201 to 202 °C; under `COC(C)(C)O[C@@H]1C(=O)N(C(=O)OC(C)(C)C)[C@@H]1c1ccccc1` (relative stereo), 90 to 92 °C. On to `CC(C)(C)OC(=O)N1CCC(Nc2nc3ccccc3n2Cc2cnc(CO)o2)CC1`, for which the melting point came out at 132 °C. Under `Clc1cccc(C2=CCN(Cc3ccccc3)CC2)n1` stands 100 to 102 °C.

`Cc1csc(NC(=S)Nc2cc(Cl)ccc2C)n1` showed a melting point of 188 °C.

`CCn1c(=O)c2c(nc(/C=C/c3ccc(C)cc3)n2C)n(CC)c1=O` showed a melting point of 171 to 172 °C. In the case of `Cc1nc(C)c(=O)n(CCO)c1C` it was 140 to 144 °C; in that of `CC(=O)N1C(=O)N(c2cc(Cl)cc(Cl)c2)C(=O)[C@]12CN(Cc1ccccc1)C[C@H]2c1ccc(C#N)cc1` (relative stereo), 224 °C; in that of `CN(C)C(=O)Nc1ccc2c(c1)C(c1ccccc1F)=NCC(=O)N2C`, 97 °C. `N#Cc1cccc(CN2C(=O)c3ccccc3C2=O)n1` came in with a melting point of 205 °C.

`CC1S/C(=N/N=C\c2ccc(-c3ncn(-c4ccc(OC(F)(F)F)cc4)n3)cc2)N(c2ccccc2C2CC2)C1=O` (centres undefined) yielded a melting point of 112 to 115 °C.

`CC1Cc2cc(O)ccc2C2C(F)CC3(C)C(=O)CCC3C12` (centres undefined) yielded a melting point of 185 to 186 °C. Under `NC1CCN(C(=O)c2ccc(-c3[nH]nc4c3C(=O)c3c(NC(=O)NN5CCOCC5)cccc3-4)s2)C1` (centres undefined) stands 201 to 202 °C.

Molecule `Cn1cncc1C(O)(c1ccc(Cl)cc1)c1ccc2[nH]c(=O)cc(-c3cccnc3)c2c1` (centres undefined) had a melting point greater than 250 °C.

In turn, `CS(=O)(=O)c1ccc(-n2cccc2-c2ccc(F)cc2)cc1` registered a melting point of 195 to 196 °C. `CC(C)(CC(O)(CO)C(F)(F)F)c1cc(Br)cc2c1OCC2` (centres undefined) gave a melting point of 124 to 128 °C.

Regarding `CC(C)(CCCC(=O)O)c1ccc(O)c(C(=O)O)c1`, the melting point was 136 to 138 °C.

`CCCc1c(OCCCCCCc2ccc3cc(OC)c(OC)cc3c2)ccc(C(=O)O)c1O` returned a melting point of 102 to 104 °C. Molecule `COC(c1cc2c3c(c1)c(C)cc(=O)n3CC2)(C(F)(F)F)C(F)(F)F` returned a melting point of 242 to 243 °C. Under `O=C(C=Cc1cccc(O)c1)C=Cc1cccc(O)c1` stands 190 to 195 °C. For the molecule `CC1(C)CNC(=S)NC1`, the melting point lay in the range of 225 to 228 °C. `COc1cc(-c2cc(C(F)(F)F)nn2-c2ccc(S(C)(=O)=O)cc2)ccc1-c1cocn1` registered a melting point of 171 to 173 °C. Molecule `COC(=O)CCCc1cc2cc(Cl)ccc2n1S(=O)(=O)c1ccc2c(c1)CCC(=O)N2` came in with a melting point of 198 to 205 °C. In turn, `CC(C)(C)OCCOc1cc(NC(=O)OC(C)(C)C)c(NC(=O)CC(=O)c2cccc(-n3ccnc3)c2)cc1-c1ccc(F)cc1` registered a melting point of 101 °C.

`COc1cc(OC)c2c(c1)OC(C)(C)CC2=O` gave a melting point of 104 to 105 °C. In the case of `O=C1CC(c2ccc(Cl)cc2Cl)Cc2[nH]c3ccc(Cl)cc3c(=O)c21` (centres undefined) it was 308 to 310 °C. `CCCC(CCC)(CCC)NC(=O)N(C)C` yielded a melting point of 88 °C. In the case of `O=C(O)C1=Cc2cc(I)cc(I)c2OC1C(F)(F)F` (centres undefined) it was 243 to 244 °C.

`N#Cc1c(N2CCc3ccccc3CC2)nc(C2CC2)n(CC(F)(F)F)c1=O` yielded a melting point of 116 to 118 °C. In turn, `Nc1cc(-c2ccco2)ccc1Nc1cccc(-n2ccnc2)c1` had a melting point of 191 to 194 °C. Under `COCC1COc2cc3ncnc(Nc4cccc(I)c4)c3cc2O1` (centres undefined) stands 175 to 177 °C; under `c1ccc(CCC2CCN(Cc3c[nH]c4ncccc34)CC2)cc1`, 162 to 163 °C; under `CC(C)C(NC(=O)N1CCc2cc(S(=O)(=O)N3CCN(c4cccc(Cl)c4)CC3)ccc21)C(=O)O` (centres undefined), 185 to 186 °C. Turning to `Nc1cc(Cl)cc(Cl)c1C(=O)NCc1ccccc1Br`, the melting point was 163 to 167 °C. Under `O=c1c2c(-c3ccc(F)cc3)n[nH]c2c2cccnc2n1-c1ccccc1` stands 300 °C. Under `CNC(=O)c1ccc(-c2cnc3[nH]c(=O)n(CC4CCOCC4)c3n2)cc1` stands 328 to 330 °C. As to `O=[N+]([O-])c1oc2ccc(CCO)cc2c1-c1ccccc1`, the melting point was 169 to 173 °C.

The molecule `O=C(O)COc1cc(F)ccc1C(=S)NCc1ccc(Br)cc1F` yielded a melting point of 154 to 157 °C. In the case of `COC(=O)c1c(F)c(F)c(NCc2ccccc2)c(F)c1F` it was 96 to 97 °C; in that of `CCOC(=O)c1c2ccc(Cl)cc2c(-c2ccccc2)n1CCCC(C)C1OCCO1` (centres undefined), 100 to 101 °C; in that of `CN1CC[C@H]2Cc3[nH][nH]c(=O)c3C[C@@H]2C1` (relative stereo), 245 to 247 °C.

Consider `COc1ccc(CC(C)NCC(O)c2cccc(Cl)c2)cc1F` (centres undefined), for which the melting point lay within 93 to 95 °C. In the case of `CCOC(=O)c1cnc2n(CC)c3ccccc3n2c1=O` it was 118 to 120 °C; in that of `COC(=O)CCc1ccc(OCCC2Oc3ccccc3N(Cc3cccc(Cl)c3)C2=O)cc1` (centres undefined), 88 to 89 °C; in that of `COC(=O)C1=Cc2cc(-c3ccc(OC(C)C)cc3)ccc2S(=O)(=O)CC1`, 140 to 142 °C. Under `Cc1nnc(OC[C@H]2CN(c3ccc(C4=CCOCC4)c(F)c3)C(=O)O2)o1` stands 146 to 147 °C; under `CC(=O)NC(C)(C)c1ccc(C(C)N2CCN(c3ccccc3)CC2)cc1` (centres undefined), 169 to 171 °C; under `COc1ccc(N2CCN(c3c(C)c(C)c4c(c3C)CC(C)(CN(C)C)O4)CC2)cc1` (centres undefined), 145 to 148 °C. Under `CCOC(=O)COc1ccc(C(=O)Nc2ccccc2S(=O)c2ccccc2C#N)cc1` (centres undefined) stands 128 to 130 °C. Molecule `COc1ccc(CSC2(C(=O)O)CCCCC2)cc1` came in with a melting point of 98 °C.

(Values after a melting point compilation (Tetko et al.; mined from patent text by program, amines drawn as free bases though some values may be those of a salt).)
